# Laboratory results reported in patent US9434711B2 (Janssen Pharmaceutica, NV, priority 2007, dated 2016).
# Like-named read-outs stand apart in the source and are kept apart here.
# Target: canine TRPM8 (Canis lupus familiaris, UniProt Q1A7N1)
# Assay: In Vitro Canine TRPM8 Functional Assay (Ca2+ fluorescence, icilin activation)
# Assay type: cell-based
# Conditions: for inhibition at 0.5 µM: compound at 0.5 μM, read-out: % Inh @ 0.5; for IC50: HEK293 cells stably expressing canine TRPM8, icilin activation, eight-point dose-response, read-out: IC50
# Outline: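 HEK293 cells stably expressing canine TRPM8 loaded with Calcium 3 dye; compound added and Ca2+ fluorescence monitored 5 min before icilin at a final level giving ~80% maximal response, read on FLIPR or FDSS. EC50 or IC50 from eight-point dose-response, quadruplicate wells per point.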
# [1] = canine TRPM8, icilin activation
# [2] = compound at 0.2 μM, canine TRPM8, icilin activation, read-out: % Inh @ 0.2
# canine TRPM8, sequence (Q1A7N1 1-1104): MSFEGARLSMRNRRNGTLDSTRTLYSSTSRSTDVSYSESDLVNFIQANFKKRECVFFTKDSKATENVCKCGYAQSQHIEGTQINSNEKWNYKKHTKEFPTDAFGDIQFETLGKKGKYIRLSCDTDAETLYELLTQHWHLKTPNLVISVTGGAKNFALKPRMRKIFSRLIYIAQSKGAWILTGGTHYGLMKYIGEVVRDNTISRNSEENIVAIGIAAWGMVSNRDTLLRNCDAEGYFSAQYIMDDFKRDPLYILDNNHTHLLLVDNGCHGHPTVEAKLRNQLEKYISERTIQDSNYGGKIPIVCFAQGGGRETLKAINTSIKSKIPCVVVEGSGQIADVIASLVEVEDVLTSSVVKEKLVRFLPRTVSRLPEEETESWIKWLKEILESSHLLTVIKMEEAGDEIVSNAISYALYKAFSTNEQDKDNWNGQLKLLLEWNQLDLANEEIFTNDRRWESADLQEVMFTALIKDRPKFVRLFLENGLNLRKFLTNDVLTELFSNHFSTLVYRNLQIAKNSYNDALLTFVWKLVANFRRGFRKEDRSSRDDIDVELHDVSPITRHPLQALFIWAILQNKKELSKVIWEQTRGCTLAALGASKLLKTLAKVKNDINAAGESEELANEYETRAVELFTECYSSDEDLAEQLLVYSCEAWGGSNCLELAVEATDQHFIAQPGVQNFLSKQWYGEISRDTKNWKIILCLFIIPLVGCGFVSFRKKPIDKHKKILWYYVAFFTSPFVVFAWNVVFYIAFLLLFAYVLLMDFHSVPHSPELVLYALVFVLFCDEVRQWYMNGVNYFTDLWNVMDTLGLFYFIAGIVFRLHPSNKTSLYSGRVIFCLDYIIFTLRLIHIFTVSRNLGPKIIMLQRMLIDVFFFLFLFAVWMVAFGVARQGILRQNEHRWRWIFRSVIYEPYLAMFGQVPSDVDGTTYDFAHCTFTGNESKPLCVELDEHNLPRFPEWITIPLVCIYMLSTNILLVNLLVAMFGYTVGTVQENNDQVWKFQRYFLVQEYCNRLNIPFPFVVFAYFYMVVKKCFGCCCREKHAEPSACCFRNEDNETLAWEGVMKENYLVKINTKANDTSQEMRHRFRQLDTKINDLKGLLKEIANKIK
SMILES,inhibition at 0.5 µM [1] [%],IC50 [nM],inhibition at 0.2 µM [2] [%],inhibition at 0.2 µM (read-out: % Inh @ 0.2 (μM)) [%]
"CN(C)CCN(c1sc2ccccc2c1Br)S(=O)(=O)c1ccccc1 [Compound 238, N-(3-Bromo-benzo[b]thiophen-2-yl)-N-(2-dimethylamino-ethyl)-benzenesulfonamide]",96,93,,
"O=C1NCCN1CCN(c1sc2ccccc2c1Br)S(=O)(=O)c1ccccc1 [Compound 240, N-(3-Bromo-benzo[b]thiophen-2-yl)-N-[2-(2-oxo-imidazolidin-1-yl)-ethyl]-benzenesulfonamide]",43,,,
"CN1CCC[C@H]1CN(c1sc2ccccc2c1Br)S(=O)(=O)c1ccccc1 [Compound 241, (S)—N-(3-Bromo-benzo[b]thiophen-2-yl)-N-(1-methyl-pyrrolidin-2-ylmethyl)-benzenesulfonamide]",97,106,,
"O=S(=O)(c1ccccc1)N(CCCc1ccccc1)c1sc2ccccc2c1Br [Compound 246, N-(3-Bromo-benzo[b]thiophen-2-yl)-N-(3-phenyl-propyl)-benzenesulfonamide]",,8.8,102,
"CCCCCCN(c1sc2ccccc2c1Br)S(=O)(=O)c1ccccc1 [Compound 248, N-(3-Bromo-benzo[b]thiophen-2-yl)-N-(hexyl)-benzenesulfonamide]",,8.3,98,
"O=S(=O)(c1ccccc1)N(CC12CC3CC(CC(C3)C1)C2)c1sc2ccccc2c1Br [Compound 249, N-(Adamant-1-ylmethyl)-N-(3-bromo-benzo[b]thiophen-2-yl)-benzenesulfonamide]",,0.9,97,
"COCCN(c1sc2ccccc2c1Br)S(=O)(=O)c1ccccc1 [Compound 252, N-(3-Bromo-benzo[b]thiophen-2-yl)-N-(2-methoxy-ethyl)-benzenesulfonamide]",,17.1,102,
"COP(=O)(CCN(c1sc2ccccc2c1Br)S(=O)(=O)c1ccccc1)OC [Compound 254, N-(3-Bromo-benzo[b]thiophen-2-yl)-N-(dimethoxyphosphinoyl-ethyl)-benzenesulfonamide]",,125,,58
"O=S(=O)(c1ccccc1)N(CC1CC1)c1sc2ccccc2c1Br [Compound 255, N-(3-Bromo-benzo[b]thiophen-2-yl)-N-(cyclopropylmethyl)-benzenesulfonamide]",,86,89,
"O=S(=O)(c1ccccc1)N(CCN1CCCCC1)c1sc2ccccc2c1Br [Compound 256, N-(3-Bromo-benzo[b]thiophen-2-yl)-N-(2-piperidin-1-yl-ethyl)-benzenesulfonamide]",,30,87,
"O=C1CCC(=O)N1CCN(c1sc2ccccc2c1Br)S(=O)(=O)c1ccccc1 [Compound 257, N-(3-Bromo-benzo[b]thiophen-2-yl)-N-[2-(2,5-dioxo-pyrrolidin-1-yl)-ethyl]-benzenesulfonamide]",,,62,
"CSCCN(c1sc2ccccc2c1Br)S(=O)(=O)c1ccccc1 [Compound 260, N-(3-Bromo-benzo[b]thiophen-2-yl)-N-(2-methylsulfanyl-ethyl)-benzenesulfonamide]",,50,86,
"CCS(=O)(=O)N(CC(F)F)c1sc2ccccc2c1Br [Compound 263, N-(3-Bromo-benzo[b]thiophen-2-yl)-N-(2,2-difluoro-ethyl)-ethanesulfonamide]",,203,52,
"CCS(=O)(=O)N(CCOC(C)(C)C)c1sc2ccccc2c1Br [Compound 264, N-(3-Bromo-benzo[b]thiophen-2-yl)-N-(2-tert-butoxy-ethyl)-ethanesulfonamide]",,34.1,99,
"CCCCN(c1sc2ccccc2c1Br)S(=O)(=O)N(C)C [Compound 265, N-(3-Bromo-benzo[b]thiophen-2-yl)-N-(butyl)-N′,N′-dimethylsulfamide]",,22,90,
"CN(C)S(=O)(=O)N(CC1CC1)c1sc2ccccc2c1Br [Compound 266, N-(3-Bromo-benzo[b]thiophen-2-yl)-N-(cyclopropylmethyl)-N′,N′-dimethylsulfamide]",,39,86,
"CN(C)S(=O)(=O)N(CCOC(C)(C)C)c1sc2ccccc2c1Br [Compound 267, N-(3-Bromo-benzo[b]thiophen-2-yl)-N-(2-tert-butoxy-ethyl)-N′,N′-dimethylsulfamide]",,10,96,
"COCCN(c1sc2ccccc2c1Br)S(=O)(=O)c1ccc(C(=O)O)cc1 [Compound 274, N-(3-Bromo-benzo[b]thiophen-2-yl)-N-(2-methoxyethyl)-4-carboxy-benzenesulfonamide]",,36,94,
"CC(C)(C)OCCN(c1sc2ccccc2c1Br)S(=O)(=O)c1ccc(C(=O)O)cc1 [Compound 275, N-(3-Bromo-benzo[b]thiophen-2-yl)-N-(2-tert-butoxy-ethyl)-4-carboxy-benzenesulfonamide]",,3,97,

# Continued, in another order:
inhibition at 0.5 µM [1] [%],IC50 [nM],inhibition at 0.2 µM [2] [%],SMILES,inhibition at 0.2 µM (read-out: % Inh @ 0.2 (μM)) [%]
51,,,"O=S(=O)(c1ccccc1)N(C[C@@H](O)CO)c1sc2ccccc2c1Br [Compound 235, (R)—N-(3-Bromo-benzo[b]thiophen-2-yl)-N-(2,3-dihydroxy-propyl)-benzenesulfonamide]",
68,,,"O=C1CCCN1CCN(c1sc2ccccc2c1Br)S(=O)(=O)c1ccccc1 [Compound 236, N-(3-Bromo-benzo[b]thiophen-2-yl)-N-[2-(2-oxo-pyrrolidin-1-yl)-ethyl]-benzenesulfonamide]",
92,24.8,87,"O=S(=O)(c1ccccc1)N(CCN1CCOCC1)c1sc2ccccc2c1Br [Compound 237, N-(3-Bromo-benzo[b]thiophen-2-yl)-N-(2-morpholin-4-yl-ethyl)-benzenesulfonamide]",
96,92,,"CS(=O)(=O)CCN(c1sc2ccccc2c1Br)S(=O)(=O)c1ccccc1 [Compound 239, N-(3-Bromo-benzo[b]thiophen-2-yl)-N-(2-methanesulfonyl-ethyl)-benzenesulfonamide]",
,38.2,95,"O=S(=O)(c1ccccc1)N(CC(F)F)c1sc2ccccc2c1Br [Compound 242, N-(3-Bromo-benzo[b]thiophen-2-yl)-N-(2,2-difluoro-ethyl)-benzenesulfonamide]",
,38,98,"COC(=O)CN(c1sc2ccccc2c1Br)S(=O)(=O)c1ccccc1 [Compound 243, N-(3-Bromo-benzo[b]thiophen-2-yl)-N-(carbomethoxymethyl)-benzenesulfonamide]",
,,100,"COC(=O)[C@@H](C)CN(c1sc2ccccc2c1Br)S(=O)(=O)c1ccccc1 [Compound 244, N-(3-Bromo-benzo[b]thiophen-2-yl)-N-[2(S)-methyl-2-carbomethoxy-ethyl]-benzenesulfonamide]",
,,102,"COC(=O)[C@H](C)CN(c1sc2ccccc2c1Br)S(=O)(=O)c1ccccc1 [Compound 245, N-(3-Bromo-benzo[b]thiophen-2-yl)-N-[2(R)-methyl-2-carbomethoxy-ethyl]-benzenesulfonamide]",
,25.5,99,"CCN(c1sc2ccccc2c1Br)S(=O)(=O)c1ccccc1 [Compound 247, N-(3-Bromo-benzo[b]thiophen-2-yl)-N-(ethyl)-benzenesulfonamide]",
,12.7,102,"O=S(=O)(c1ccccc1)N(CCC(F)(F)F)c1sc2ccccc2c1Br [Compound 250, N-(3-Bromo-benzo[b]thiophen-2-yl)-N-(3,3,3-trifluoro-propyl)-benzenesulfonamide]",
,38.7,95,"CC#CCCN(c1sc2ccccc2c1Br)S(=O)(=O)c1ccccc1 [Compound 251, N-(3-Bromo-benzo[b]thiophen-2-yl)-N-(pent-3-ynyl)-benzenesulfonamide]",
,27.3,101,"CC(=O)CCCN(c1sc2ccccc2c1Br)S(=O)(=O)c1ccccc1 [Compound 253, N-(3-Bromo-benzo[b]thiophen-2-yl)-N-(4-oxo-pentyl)-benzenesulfonamide]",
,,25,"O=C1CC[C@H](CN(c2sc3ccccc3c2Br)S(=O)(=O)c2ccccc2)N1 [Compound 258, (R)—N-(3-Bromo-benzo[b]thiophen-2-yl)-N-(5-oxo-pyrrolidin-2-ylmethyl)-benzenesulfonamide]",
,,24,"O=C1CC[C@@H](CN(c2sc3ccccc3c2Br)S(=O)(=O)c2ccccc2)N1 [Compound 259, (S)—N-(3-Bromo-benzo[b]thiophen-2-yl)-N-(5-oxo-pyrrolidin-2-ylmethyl)-benzenesulfonamide]",
,12.6,97,"CCCCN(c1sc2ccccc2c1Br)S(=O)(=O)CC [Compound 261, N-(3-Bromo-benzo[b]thiophen-2-yl)-N-(butyl)-ethanesulfonamide]",
,67,94,"CCS(=O)(=O)N(CC1CC1)c1sc2ccccc2c1Br [Compound 262, N-(3-Bromo-benzo[b]thiophen-2-yl)-N-(cyclopropylmethyl)-ethanesulfonamide]",
,,67,"CN(C)S(=O)(=O)N(CC(F)F)c1sc2ccccc2c1Br [Compound 268, N-(3-Bromo-benzo[b]thiophen-2-yl)-N-(2,2-difluoro-ethyl)-N′,N′-dimethylsulfamide]",
,16,94,"CN(C)S(=O)(=O)N(CCC(F)(F)F)c1sc2ccccc2c1Br [Compound 269, N-(3-Bromo-benzo[b]thiophen-2-yl)-N-(3,3,3-trifluoropropyl)-N′,N′-dimethylsulfamide]",
75,338,,"NCCN(c1sc2ccccc2c1Cl)S(=O)(=O)c1ccccc1 [Compound 270, N-(2-Amino-ethyl)-N-(3-chloro-benzo[b]thiophen-2-yl)-benzenesulfonamide]",
